# Assay results as given in patent publication US20250052744A1, “Dyes and Uses Thereof” (The University of Liverpool, priority 2021, published 2025).
# What was measured:
# Assay type in all cases: cell-based
# [1] = test system: E. Coli SEC 31; test: Fluorescent signal intensity of stained bacteria (microscope, ImageJ)
# Experimental: (§1) Firstly, all different bacterial strains were grown overnight in LB at 37° C. and 200 rpm. The mid-exponential phase cultures of bacterial strains were then diluted to a concentration of 10^5 cells·mL^−1 in LB. SYBR Green I, SYTO 13/9 and DiSC3(5) dyes were prepared by diluting them from their stocks.
# (§2) The three dyes (SYBR Green I, SYTO 13/9 and DiSC3(5)) were then added in the final concentrations of 3 μM—DiSC3(5), 3 μM—SYTO 13/9 and 10× (diluted from the stock 10,000×)—SYBR Green I to the different bacterial strains and the strains incubated […] at 37° C. for 10 minutes in the dark.
# (§3) The bacterial strains were then put on a haemocytometer and visualised under a microscope with fluorescent filters corresponding to individual dyes. Images were taken for all the bacterial strains at the same intensity of the incident laser light and 10-15 images were taken for each of the bacterial strains.
# (§4) The images were then analysed on ImageJ software by first converting the coloured images to monochromatic images, then selecting an area with cells and analysing the plot profile. The intensity of the peaks and background from the image was then recorded.
# (§5) A similar protocol to Example 1 was followed, with the addition of […] of FM 4-64.
# [2] = test system: Enterococcus faecium NCTCT 7171; test: as above
# Experimental: as §1, §2, §3, §4, §5
# [3] = test system: P. Aeruginosa NCTC 10332; test: as above
# Experimental: as §1, §2, §3, §4, §5
# [4] = test system: P. Mirabilis NCTC 11938; test: as above
# Experimental: as §1, §2, §3, §4, §5
# [5] = test system: S. Aureus NCTC 8532; test: as above
# Experimental: as §1, §2, §3, §4, §5
# [6] = test system: E. Coli SEC 31; test: Bacterial growth with dyes, optical density after 24 hours; conditions: with 3 μM DiSC3(5) and 3 μM SYTO 13/9
# Experimental: (§6) FIG. 3 is a graph showing is a graph showing the average optical density after 24 hours (OD 600) of P. Aeruginosa NCTC 10332, E. Coli SEC 31, Enterococcus faecium NCTCT 7171, P. Mirabilis NCTC 11938, S. Aureus NCTC 8532 and Klebsiella pneumoniae NCTC 9633, when incubated with DiSC3(5), SYBR Green I and SYTO 13/9 where different concentrations of SYBR Green I were assessed.
# (§7) FIG. 4 is a graph showing is a graph showing the average optical density after 24 hours (OD 600) of P. Aeruginosa NCTC 10332, E. Coli SEC 31, Enterococcus faecium NCTCT 7171, P. Mirabilis NCTC 11938, S. Aureus NCTC 8532 and Klebsiella pneumoniae NCTC 9633, when incubated with DiSC3(5), SYBR Green I and SYTO 13/9 where different concentrations of SYTO 13/9 were assessed.
# (§8) Comparative experiments were conducted using multiple DNA dyes in low concentration and one DNA at different (and higher) concentration in order to establish whether increasing DNA dye concentration would affect bacterial growth and hinder the differentiation of bacterial strains.
# (§9) Experiments were conducted which were similar to Example 1.
# (§10) In one experiment, 3 μM of DiSC3(5) and 3 μM of SYTO 13/9 was assessed with CYBR Green I at the following concentrations: 1× average, 3× average, 10× average, 30 average and 100× average.
# (§11) In another experiment, 3 μM of DiSC3(5) and 10× of CYBR Green I was assessed with SYTO 13/9 at the following concentrations: 1 μM average, 3 μM average and 10 μM average.
# [7] = test system: Enterococcus faecium NCTCT 7171; test: as above; conditions: with 3 μM DiSC3(5) and 3 μM SYTO 13/9
# Experimental: as §6, §7, §8, §9, §10, §11
# [8] = test system: Klebsiella pneumoniae NCTC 9633; test: as above; conditions: with 3 μM DiSC3(5) and 3 μM SYTO 13/9
# Experimental: as §6, §7, §8, §9, §10, §11
# [9] = test system: P. Aeruginosa NCTC 10332; test: as above; conditions: with 3 μM DiSC3(5) and 3 μM SYTO 13/9
# Experimental: as §6, §7, §8, §9, §10, §11
# [10] = test system: P. Mirabilis NCTC 11938; test: as above; conditions: with 3 μM DiSC3(5) and 3 μM SYTO 13/9
# Experimental: as §6, §7, §8, §9, §10, §11
# [11] = test system: S. Aureus NCTC 8532; test: as above; conditions: with 3 μM DiSC3(5) and 3 μM SYTO 13/9
# Experimental: as §6, §7, §8, §9, §10, §11
# [12] = Table 1, 3 μM DiSC3(5), 3 μM SYTO 13/9, 10× SYBR Green I, 37° C. for 10 minutes, background subtracted
# [13] = Table 3, DiSC3(5) 3 uM, SYBR Green 10x, SYTO 13/9 3 uM, FM 4-64 15 uM
structure (smiles),measurement,setting,value
"CCCN1C(=CC=CC=Cc2sc3ccccc3[n+]2CCC)Sc2ccccc21.[I-] [DiSC3(5), 3,3′-Dipropylthiadicarbocyanine Iodide]","fluorescent signal intensity value, Average",[1]; [12],62.66
same,"fluorescent signal intensity value, Average",[1]; [13],62.66
same,"fluorescent signal intensity value, Average",[2]; [12],142.28
same,"fluorescent signal intensity value, Average",[2]; [13],142.28
same,"fluorescent signal intensity value, Average",[3]; [12],0.00
same,"fluorescent signal intensity value, Average",[3]; [13],0.00
same,"fluorescent signal intensity value, Average",[4]; [12],88.50
same,"fluorescent signal intensity value, Average",[4]; [13],88.50
same,"fluorescent signal intensity value, Average",[5]; [12],184.80
same,"fluorescent signal intensity value, Average",[5]; [13],184.80
"CCN(CC)c1ccc(C=CC=CC=Cc2cc[n+](CCC[N+](CC)(CC)CC)cc2)cc1.[Br-].[Br-] [FM 4-64, N-(3-Triethylammoniumpropyl)-4-(6-(4-(Diethylamino) Phenyl) Hexatrienyl) Pyridinium Dibromide]","fluorescent signal intensity value, Average",[1]; [13],56.50
same,"fluorescent signal intensity value, Average",[2]; [13],25.00
same,"fluorescent signal intensity value, Average",[3]; [13],10.00
same,"fluorescent signal intensity value, Average",[4]; [13],0.00
same,"fluorescent signal intensity value, Average",[5]; [13],89.00
"CCCN(CCCN(C)C)c1cc(/C=C2/Sc3ccccc3N2C)c2ccccc2[n+]1-c1ccccc1 [SYBR Green I, N′,N′-dimethyl-N-[4-[(E)-(3-methyl-1,3-benzothiazol-2-ylidene)methyl]-1-phenylquinolin-1-ium-2-yl]-N-propylpropane-1,3-diamine]","fluorescent signal intensity value, Average",[1]; [12],104.53
same,"fluorescent signal intensity value, Average",[1]; [13],104.53
same,"fluorescent signal intensity value, Average",[2]; [12],162.27
same,"fluorescent signal intensity value, Average",[2]; [13],162.27
same,"fluorescent signal intensity value, Average",[3]; [12],123.67
same,"fluorescent signal intensity value, Average",[3]; [13],123.67
same,"fluorescent signal intensity value, Average",[4]; [12],109.85
same,"fluorescent signal intensity value, Average",[4]; [13],109.85
same,"fluorescent signal intensity value, Average",[5]; [12],196.52
same,"fluorescent signal intensity value, Average",[5]; [13],196.52
same,average optical density after 24 hours (OD 600),[6]; SYBR Green I 1x,3.407
same,average optical density after 24 hours (OD 600),[6]; SYBR Green I 3x,3.306
same,average optical density after 24 hours (OD 600),[6]; SYBR Green I 10x,3.139
same,average optical density after 24 hours (OD 600),[6]; SYBR Green I 30x,2.086
same,average optical density after 24 hours (OD 600),[6]; SYBR Green I 100x,2.514
same,average optical density after 24 hours (OD 600),[7]; SYBR Green I 1x,1.158
same,average optical density after 24 hours (OD 600),[7]; SYBR Green I 3x,1.315
same,average optical density after 24 hours (OD 600),[7]; SYBR Green I 10x,0.136
same,average optical density after 24 hours (OD 600),[7]; SYBR Green I 30x,0
same,average optical density after 24 hours (OD 600),[7]; SYBR Green I 100x,0.022
same,average optical density after 24 hours (OD 600),[8]; SYBR Green I 1x,4.719
same,average optical density after 24 hours (OD 600),[8]; SYBR Green I 3x,4.907
same,average optical density after 24 hours (OD 600),[8]; SYBR Green I 10x,3.439
same,average optical density after 24 hours (OD 600),[8]; SYBR Green I 30x,2.053
same,average optical density after 24 hours (OD 600),[8]; SYBR Green I 100x,1.138
same,average optical density after 24 hours (OD 600),[9]; SYBR Green I 1x,5.785
same,average optical density after 24 hours (OD 600),[9]; SYBR Green I 3x,5.785
same,average optical density after 24 hours (OD 600),[9]; SYBR Green I 10x,2.968
same,average optical density after 24 hours (OD 600),[9]; SYBR Green I 30x,3.113
same,average optical density after 24 hours (OD 600),[9]; SYBR Green I 100x,2.39
same,average optical density after 24 hours (OD 600),[10]; SYBR Green I 1x,5.785
same,average optical density after 24 hours (OD 600),[10]; SYBR Green I 3x,5.785
same,average optical density after 24 hours (OD 600),[10]; SYBR Green I 10x,4.635
same,average optical density after 24 hours (OD 600),[10]; SYBR Green I 30x,4.044
same,average optical density after 24 hours (OD 600),[10]; SYBR Green I 100x,0.001
same,average optical density after 24 hours (OD 600),[11]; SYBR Green I 1x,3.796
same,average optical density after 24 hours (OD 600),[11]; SYBR Green I 3x,0
same,average optical density after 24 hours (OD 600),[11]; SYBR Green I 10x,0
same,average optical density after 24 hours (OD 600),[11]; SYBR Green I 30x,0
same,average optical density after 24 hours (OD 600),[11]; SYBR Green I 100x,0
